Reference: patent US20250059180A1 (DONG WHA PHARM. CO., LTD., priority 2022, published 2025)
Structures can show the parent of a compound that is named as a salt. Where two headings read alike, the source gives them in different places.

Tested on: Pfeiffer cells, lymphoma cells having EZH2 mutation (A677G)
Test: Proliferation inhibition of cells of hematologic malignancies (CCK-8, 11 days)
Type: cell-based
Conditions: 11 days culture, read-out: Cell proliferation inhibitory effect (IC50)
Description: The growth inhibitory activity of 1,3-benzodioxole derivative compounds represented by chemical formula I of the present invention against Pfeiffer cells, which are lymphoma cells having EZH2 mutation (A677G), was evaluated.
Pfeiffer was cultured using RPMI1640 containing 10% fetal bovine serum. The cells were inoculated into wells of a 96-well culture dish at 10,000 cells each, and cultured for 11 days after treating with the test material for each concentration. For 11 days, the test material was replaced every three to four days. After culturing, the cells were treated with a cell counting kit-8 (CCK-8) reagent for each well, absorbance was measured at 450 nm, and IC50 values for cell proliferation were obtained through curve fitting of non-linear regression in the GraphPad program (GraphPad Prism 5.0 software).

Row | IC50 (Homo sapiens, Pfeiffer, 264 h) [nM] | IC50 [nM] | Structure (SMILES)
1 | ≤ 10 | – | CSc1cc(C)[nH]c(=O)c1CNC(=O)c1cc(-c2ccc(CN3CCOCC3)cc2)c2c(c1C)OC(C)([C@H]1CC[C@H](N(C)C)CC1)O2 (stereo partly drawn) [Compound 6, 2-(trans-4-(dimethylamino)cyclohexyl)-2,4-dimethyl-N-((6-methyl-4-(methylthio)-2-oxo-1,2-dihydropyridin-3-yl)methyl)-7-(4-(morpholinomethyl)phenyl)benzo[d][1,3]dioxole-5-carboxamide]
2 | ≤ 10 | – | CSc1cc(C)[nH]c(=O)c1CNC(=O)c1cc(-c2ccc(N3C[C@@H](C)O[C@@H](C)C3)nc2)c2c(c1C)OC(C)([C@H]1CC[C@H](N(C)C3CCCCC3)CC1)O2 (stereo partly drawn) [Compound 114, 2-(trans-4-(cyclohexyl(methyl)amino)cyclohexyl)-7-(6-((2S,6R)-2,6-dimethylmorpholino)pyridin-3-yl)-2,4-dimethyl-N-((6-methyl-4-(methylthio)-2-oxo-1,2-dihydropyridin-3-yl)methyl)benzo[d][1,3]dioxole-5-carboxamide]
3 | – | 10 to 100 | CCN(C)c1ccc(-c2cc(C(=O)NCc3c(SC)cc(C)[nH]c3=O)c(C)c3c2OC(C)(C2CCN(CC(F)(F)F)CC2)O3)cn1 (centres unmarked) [Compound 87, 7-(6-(ethyl(methyl)amino)pyridin-3-yl)-2,4-dimethyl-N-((6-methyl-4-(methylthio)-2-oxo-1,2-dihydropyridin-3-yl)methyl)-2-(1-(2,2,2-trifluoroethyl)piperidin-4-vi)benzo[d][1,3]dioxole-5-carboxamide]
4 | – | ≥ 100 | CCN1CCC(C2(C)Oc3c(-c4ccc(N5C[C@@H](C)O[C@@H](C)C5)nc4)cc(C(=O)NCc4c(SC)cc(C)[nH]c4=O)c(C)c3O2)CC1 (single isomer, unassigned) [Compound 50]
5 | ≤ 10 | – | COCCN(C)[C@H]1CC[C@H](C2(C)Oc3c(-c4cnc(N5C[C@@H](C)O[C@@H](C)C5)nc4)cc(C(=O)NCc4c(SC)cc(C)[nH]c4=O)c(C)c3O2)CC1 (stereo partly drawn) [Compound 25, 7-(2-((2S,6R)-2,6-dimethylmorpholino)pyrimidin-5-yl)-2-(trans-4-((2-methoxyethyl)(methyl)amino)cyclohexyl)-2,4-dimethyl-N-((6-methyl-4-(methylthio)-2-oxo-1,2-dihydropyridin-3-yl)methyl)benzo[d][1,3]dioxole-5-carboxamide]
6 | – | ≤ 10 | CSc1cc(C)[nH]c(=O)c1CNC(=O)c1cc(-c2ccc(N3C[C@@H](C)O[C@@H](C)C3)nc2)c2c(c1C)OC(C)(C1CCN(CC(F)F)CC1)O2 (single isomer, unassigned) [Compound 47]
7 | ≤ 10 | – | CSc1cc(C)[nH]c(=O)c1CNC(=O)c1cc(-c2ccc(N3CCC(F)(F)CC3)nc2)c2c(c1C)OC(C)([C@H]1CC[C@H](N(C)C)CC1)O2 (stereo partly drawn) [Compound 3, 7-(6-(4,4-difluoropiperidin-1-yl)pyridin-3-yl)-2-(trans-4-(dimethylamino)cyclohexyl)-2,4-dimethyl-N-((6-methyl-4-(methylthio)-2-oxo-1,2-dihydropyridin-3-yl)methyl)benzo[d][1,3]dioxole-5-carboxamide]
8 | ≤ 10 | – | CSc1cc(C)[nH]c(=O)c1CNC(=O)c1cc(-c2ccc(N3C[C@@H](C)O[C@@H](C)C3)nc2)c2c(c1C)OC(C)([C@H]1CC[C@H](N3CC(O)C3)CC1)O2 (stereo partly drawn) [Compound 101, 7-(6-((2S,6R)-2,6-dimethylmorpholino)pyridin-3-yl)-2-(trans-4-(3-hydroxyazetidin-1-yl)cyclohexyl)-2,4-dimethyl-N-((6-methyl-4-(methylthio)-2-oxo-1,2-dihydropyridin-3-yl)methyl)benzo[d][1,3]dioxole-5-carboxamide]
9 | 10 to 100 | – | CSc1cc(C)[nH]c(=O)c1CNC(=O)c1cc(-c2ccc(N3C[C@@H](C)O[C@@H](C)C3)nc2)c2c(c1C)OC(C)([C@H]1CC[C@H](N(C)C(=O)C(F)(F)F)CC1)O2 (stereo partly drawn) [Compound 115, 7-(6-((2S,6R)-2,6-dimethylmorpholino)pyridin-3-yl)-2,4-dimethyl-N-((6-methyl-4-(methylthio)-2-oxo-1,2-dihydropyridin-3-yl)methyl)-2-(trans-4-(2,2,2-trifluoro-N-methylacetamido)cyclohexyl)benzo[d][1,3]dioxole-5-carboxamide]

The next lines start with the compound.

Row | Structure (SMILES) | IC50 (Homo sapiens, Pfeiffer, 264 h) [nM] | IC50 [nM]
10 | CSc1cc(C)[nH]c(=O)c1CNC(=O)c1cc(-c2ccc(N3C[C@@H](C)O[C@@H](C)C3)nc2)c2c(c1C)OC(C)(C1CCN(CC(F)(F)F)CC1)O2 (stereo partly drawn) [Compound 33, 7-(6-((2S,6R)-2,6-dimethylmorpholino)pyridin-3-yl)-2,4-dimethyl-N-((6-methyl-4-(methylthio)-2-oxo-1,2-dihydropyridin-3-yl)methyl)-2-(1-(2,2,2-trifluoroethyl)piperidin-4-yl)benzo[d][1,3]dioxole-5-carboxamide] | ≤ 10 | –
11 | CSc1cc(C)[nH]c(=O)c1CNC(=O)c1cc(-c2ccc(F)nc2F)c2c(c1C)OC(C)([C@H]1CC[C@H](N(C)C)CC1)O2 (stereo partly drawn) [Compound 14, 7-(2,6-difluoropyridin-3-yl)-2-(trans-4-(dimethylamino)cyclohexyl)-2,4-dimethyl-N-((6-methyl-4-(methylthio)-2-oxo-1,2-dihydropyridin-3-yl)methyl)benzo[d][1,3]dioxole-5-carboxamide] | ≤ 10 | –
12 | CSc1cc(C)[nH]c(=O)c1CNC(=O)c1cc(-c2ccc(N3C[C@@H](C)O[C@@H](C)C3)nc2)c2c(c1C)OC(C)([C@H]1CC[C@H](N(C)CC(F)(F)F)CC1)O2 (single isomer, unassigned) [Compound 107] | – | ≤ 10
13 | CSc1cc(C)[nH]c(=O)c1CNC(=O)c1cc(-c2ccc(N3C[C@@H](C)O[C@@H](C)C3)nc2)c2c(c1C)OC(C)([C@H]1CC[C@H](N)CC1)O2 (stereo partly drawn) [Compound 100, 2-(trans-4-aminocyclohexyl)-7-(6-((2S,6R)-2,6-dimethylmorpholino)pyridin-3-yl)-2,4-dimethyl-N-((6-methyl-4-(methylthio)-2-oxo-1,2-dihydropyridin-3-yl)methyl)benzo[d][1,3]dioxole-5-carboxamide hydrochloride salt] | ≤ 10 | –
14 | CSc1cc(C)[nH]c(=O)c1CNC(=O)c1cc(-c2cnc(N(C)C)nc2)c2c(c1C)OC(C)([C@H]1CC[C@H](N(C)CC(F)(F)F)CC1)O2 (stereo partly drawn) [Compound 22, 7-(2-(dimethylamino)pyrimidin-5-yl)-2,4-dimethyl-2-(trans-4-(methyl(2,2,2-trifluoroethyl)amino)cyclohexyl)-N-((6-methyl-4-(methylthio)-2-oxo-1,2-dihydropyridin-3-yl)methyl)benzo[d][1,3]dioxole-5-carboxamide] | ≤ 10 | –
15 | CCN1CCN(c2ncc(-c3cc(C(=O)NCc4c(SC)cc(C)[nH]c4=O)c(C)c4c3OC(C)(C3CCN(CC(F)(F)F)CC3)O4)cn2)CC1 (single isomer, unassigned) [Compound 77, 7-(2-(4-ethylpiperazin-1-yl)pyrimidin-5-yl)-2,4-dimethyl-N-((6-methyl-4-(methylthio)-2-oxo-1,2-dihydropyridin-3-yl)methyl)-2-(1-(2,2,2-trifluoroethyl)piperidin-4-yl)benzo[d][1,3]dioxole-5-carboxamide] | – | ≥ 100
16 | CSc1cc(C)[nH]c(=O)c1CNC(=O)c1cc(-c2ccc3c(ccn3C)c2)c2c(c1C)OC(C)([C@H]1CC[C@H](N(C)C)CC1)O2 (stereo partly drawn) [Compound 7, 2-(trans-4-(dimethylamino)cyclohexyl)-2,4-dimethyl-7-(1-methyl-1H-indol-5-yl)-N-((6-methyl-4-(methylthio)-2-oxo-1,2-dihydropyridin-3-yl)methyl)benzo[d][1,3]dioxole-5-carboxamide] | ≤ 10 | –
17 | COCCN(C)[C@H]1CC[C@H](C2(C)Oc3c(-c4ccc(N5C[C@@H](C)O[C@@H](C)C5)nc4)cc(C(=O)NCc4c(SC)cc(C)[nH]c4=O)c(C)c3O2)CC1 (stereo partly drawn) [Compound 24, 7-(6-((2S,6R)-2,6-dimethylmorpholino)pyridin-3-yl)-2-(trans-4-((2-methoxyethyl)(methyl)amino)cyclohexyl)-2,4-dimethyl-N-((6-methyl-4-(methylthio)-2-oxo-1,2-dihydropyridin-3-yl)methyl)benzo[d][1,3]dioxole-5-carboxamide] | ≤ 10 | –
18 | CSc1cc(C)[nH]c(=O)c1CNC(=O)c1cc(-c2ccc(N3CCSCC3)nc2)c2c(c1C)OC(C)([C@H]1CC[C@H](N(C)C)CC1)O2 (stereo partly drawn) [Compound 17, 2-(trans-4-(dimethylamino)cyclohexyl)-2,4-dimethyl-N-((6-methyl-4-(methylthio)-2-oxo-1,2-dihydropyridin-3-yl)methyl)-7-(6-thiomorpholinopyridin-3-yl)benzo[d][1,3]dioxole-5-carboxamide] | ≤ 10 | –
19 | CCCOCCN(C)[C@H]1CC[C@H](C2(C)Oc3c(-c4ccc(N5C[C@@H](C)O[C@@H](C)C5)nc4)cc(C(=O)NCc4c(SC)cc(C)[nH]c4=O)c(C)c3O2)CC1 (stereo partly drawn) [Compound 30, 7-(6-((2S,6R)-2,6-dimethylmorpholino)pyridin-3-yl)-2,4-dimethyl-2-(trans-4-(methyl(2-propoxyethyl)amino)cyclohexyl)-N-((6-methyl-4-(methylthio)-2-oxo-1,2-dihydropyridin-3-yl)methyl)benzo[d][1,3]dioxole-5-carboxamide] | ≤ 10 | –
20 | CSc1cc(C)[nH]c(=O)c1CNC(=O)c1cc(-c2ccc(N3CC(C)CC(C)C3)nc2)c2c(c1C)OC(C)(C1CCN(CC(F)(F)F)CC1)O2 (centres unmarked) [Compound 37, 7-(6-(3,5-dimethylpiperidin-1-yl)pyridin-3-yl)-2,4-dimethyl-N-((6-methyl-4-(methylthio)-2-oxo-1,2-dihydropyridin-3-yl)methyl)-2-(1-(2,2,2-trifluoroethyl)piperidin-4-yl)benzo[d][1,3]dioxole-5-carboxamide] | 10 to 100 | –
